# From PubChem BioAssay AID1919009 (Molecular Pharmacology Branch, DTP, NCI, 2023)
# pIC50: −log10 of the molar value.
# Test system: K24384-001-R-PDC complex spheroid growth
# Experiment: Anticancer human tumor K24384-001-R-PDC patient-derived pancreatic adenocarcinoma cell line growth inhibition [AhR]
# Settings: for pIC50: curve of first compound; for viability, T/C: stronger effect = lower value
# Excerpt: Multicellular complex tumor spheroid response to aryl hydrocarbon receptor antagonists in combination with a variety of drugs and investigational agents in selected tumor cell lines
# The current study was undertaken to assess response to aryl hydrocarbon receptor antagonists in combination with standard-of-care drugs and investigational agents in solid tumor complex spheroid models. Complex spheroids include a stromal component modeled by human endothelial cells (HUVEC) and fibroblasts modeled by human mesenchymal stem cells (MSCs). The concentration ranges selected for each drug and investigational agent were based upon clinically achievable concentrations if the clinical Cmax of the agent was known.
# Compounds. The drugs and investigational agents: BAY 2416964 (NSC825713), GNF351 (NSC835774), CH-223191 (NSC835775), CPI-455 (NSC825282), aza-TdCyd (NSC777586), decitabine (NSC127716), belinostat (NSC758774), entinostat (NSC756642), pevonedistat (NSC761192), tazemetostat (NSC777109), talazoparib (NSC765396), olaparib (NSC753686), selinexor (NSC780203), nedisertib (M3814, NSC802822), bortezomib (NSC756655), venetoclax (NSC766270), doxorubicin (NSC123127), elimusertib (BAY189344, NSC800525), ceralasertib (AZD6738, NSC777638), TAK-243 (NSC785004), alisertib (NSC759677), etoposide (NSC141540), topotecan (NSC609699), eribulin (NSC707389), gemcitabine (NSC613327), carboplatin (NSC241240), cisplatin (NSC119875), and SN-38 (NSC673596) were obtained from the National Cancer Institute (NCI) Developmental Therapeutics Program Chemical Repository (32). The FDA-approved anticancer drug set is available from the Developmental Therapeutics Program at https://dtp.cancer.gov/organization/dscb/obtaining/available plates.htm. […] The stock solutions were prepared in dimethyl sulfoxide (DMSO, Sigma-Aldrich, St. Louis, MO, cat. D2650), except for the platinum compounds which were prepared in saline (Quality Biological, Gaithersburg, MD, cat. 114-055-101), at 800-fold the tested concentration and stored at -70 degrees C prior to their use. All drugs and investigational agents were tested over a range starting from a high concentration at or near the clinical Cmax and decreasing in half-log increments. If the clinical Cmax for an agent had not been determined, the highest concentration tested was 10 microM (Table 1).
# Cell Culture. All cells were maintained in an incubator at 37 degrees C and 5% CO2 with 95% humidity. The PDC lines were cultured according to standard operating procedures established by the NCI PDMR (https://pdmr.cancer.gov). Briefly, all PDCs were thawed and cultured in Matrigel-coated flasks prepared with a working solution of 1X Ham's F-12 nutrient mix, without supplementation (Invitrogen, Waltham, MA, cat. 11765054), 100 U/mL penicillin-streptomycin (Invitrogen, cat. 15140122), and 2.5% Matrigel (Corning Inc., Corning, NY, cat. 354248) for the first three passages. All PDCs were cultured in complete DMEM/F-12 media containing advanced DMEM/F-12 (Invitrogen, cat. 12634028), 4.9% defined fetal bovine serum, heat inactivated (HyClone Laboratories Inc., Logan, UT, cat. SH30070.03HI), 389 ng/mL hydrocortisone (Sigma-Aldrich, cat. H4001), 9.7 ng/mL human EGF recombinant protein (Invitrogen, cat. PHG0313), 23.4 microg/mL adenine (Sigma-Aldrich, cat. A2786), 97.3 U/mL penicillin-streptomycin (Invitrogen, cat. 15140122), 1.9 mM L-glutamine (Invitrogen, cat. 25030081), and 9.7 microM Y-27632 dihydrochloride (Tocris Bioscience, Bristol, United Kingdom, cat. 1254). The PDCs were cultured in complete DMEM/F12 media without 10 microM Y-27632 dihydrochloride for at least two passages prior to the screen. The established cell lines NCI-H1341 and […] were cultured in DMEM/F-12, HEPES (Invitrogen, cat. 11330032), 5% defined fetal bovine serum (HyClone Laboratories Inc., cat. SH30070.03), ITS premix universal culture supplement [insulin (5 microg/mL), transferrin (5 microg/mL), and selenious acid (5 ng/mL)] […]
# [1] = second compound 0.1 µM, first compound 0.0316 µM
# [2] = second compound 0.1 µM, first compound 0.1 µM
# [3] = second compound 0.1 µM, first compound 0.316 µM
# [4] = second compound 0.1 µM, first compound 1 µM
# [5] = second compound 0.1 µM, first compound 3.16 µM
# [6] = second compound 0.1 µM, first compound 10 µM
# [7] = second compound 0.316 µM, first compound 0.0316 µM
# [8] = second compound 0.316 µM, first compound 0.1 µM
# [9] = second compound 0.316 µM, first compound 0.316 µM
# [10] = second compound 0.316 µM, first compound 1 µM
# [11] = second compound 0.316 µM, first compound 3.16 µM
# [12] = second compound 0.316 µM, first compound 10 µM
# [13] = second compound 1 µM, first compound 0.0316 µM
# [14] = second compound 1 µM, first compound 0.1 µM
# [15] = second compound 1 µM, first compound 0.316 µM
# [16] = second compound 1 µM, first compound 1 µM
# [17] = second compound 1 µM, first compound 3.16 µM
# [18] = second compound 1 µM, first compound 10 µM
# [19] = second compound 3.16 µM, first compound 0.0316 µM
# [20] = second compound 3.16 µM, first compound 0.1 µM
# [21] = second compound 3.16 µM, first compound 0.316 µM
# [22] = second compound 3.16 µM, first compound 1 µM
# [23] = second compound 3.16 µM, first compound 3.16 µM
# [24] = second compound 3.16 µM, first compound 10 µM
# [25] = second compound 10 µM, first compound 0.0316 µM
# [26] = second compound 10 µM, first compound 0.1 µM
# [27] = second compound 10 µM, first compound 0.316 µM
# [28] = second compound 10 µM, first compound 1 µM
# [29] = second compound 10 µM, first compound 3.16 µM
# [30] = second compound 10 µM, first compound 10 µM
# 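Throughout, for viability, T/C: percent of DMSO vehicle-treated spheroid viability set as 100%.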
compound,measurement,setting,value
CC(C)CC(NC(=O)C(Cc1ccccc1)NC(=O)c1cnccn1)B(O)O (stereo not given) + CC(CO)NC(=O)c1cc(-c2ccc(Cl)cc2)nn(-c2cnn(C)c2)c1=O,pIC50,second compound 0.1 µM,8.18
same,pIC50,second compound 0.316 µM,8.15
same,pIC50,second compound 1 µM,8.18
same,pIC50,second compound 3.16 µM,8.25
same,pIC50,second compound 10 µM,8.22
same,"viability, T/C","second compound 0.1 µM, first compound 0.000949 µM",118%
same,"viability, T/C","second compound 0.1 µM, first compound 0.003 µM",110%
same,"viability, T/C","second compound 0.1 µM, first compound 0.00949 µM",22%
same,"viability, T/C","second compound 0.1 µM, first compound 0.03 µM",0.35%
same,"viability, T/C","second compound 0.1 µM, first compound 0.0949 µM",0.73%
same,"viability, T/C","second compound 0.1 µM, first compound 0.3 µM",0.34%
same,"viability, T/C","second compound 0.316 µM, first compound 0.000949 µM",133%
same,"viability, T/C","second compound 0.316 µM, first compound 0.003 µM",125%
same,"viability, T/C","second compound 0.316 µM, first compound 0.00949 µM",25.6%
same,"viability, T/C","second compound 0.316 µM, first compound 0.03 µM",0.68%
same,"viability, T/C","second compound 0.316 µM, first compound 0.0949 µM",0.25%
same,"viability, T/C","second compound 0.316 µM, first compound 0.3 µM",0.3%
same,"viability, T/C","second compound 1 µM, first compound 0.000949 µM",108%
same,"viability, T/C","second compound 1 µM, first compound 0.003 µM",108%
same,"viability, T/C","second compound 1 µM, first compound 0.00949 µM",22.2%
same,"viability, T/C","second compound 1 µM, first compound 0.03 µM",0.35%
same,"viability, T/C","second compound 1 µM, first compound 0.0949 µM",0.3%
same,"viability, T/C","second compound 1 µM, first compound 0.3 µM",0.35%
same,"viability, T/C","second compound 3.16 µM, first compound 0.000949 µM",83.6%
same,"viability, T/C","second compound 3.16 µM, first compound 0.003 µM",99.2%
same,"viability, T/C","second compound 3.16 µM, first compound 0.00949 µM",14.6%
same,"viability, T/C","second compound 3.16 µM, first compound 0.03 µM",0.34%
same,"viability, T/C","second compound 3.16 µM, first compound 0.0949 µM",0.32%
same,"viability, T/C","second compound 3.16 µM, first compound 0.3 µM",0.31%
same,"viability, T/C","second compound 10 µM, first compound 0.000949 µM",107%
same,"viability, T/C","second compound 10 µM, first compound 0.003 µM",110%
same,"viability, T/C","second compound 10 µM, first compound 0.00949 µM",12%
same,"viability, T/C","second compound 10 µM, first compound 0.03 µM",0.84%
same,"viability, T/C","second compound 10 µM, first compound 0.0949 µM",0.35%
same,"viability, T/C","second compound 10 µM, first compound 0.3 µM",0.9%
Nc1ccccc1NC(=O)c1ccc(CNC(=O)OCc2cccnc2)cc1 + CC(CO)NC(=O)c1cc(-c2ccc(Cl)cc2)nn(-c2cnn(C)c2)c1=O,pIC50,second compound 0.1 µM,5.71
same,pIC50,second compound 0.316 µM,5.87
same,pIC50,second compound 1 µM,5.93
same,pIC50,second compound 3.16 µM,6.01
same,pIC50,second compound 10 µM,6.24
same,"viability, T/C",[1],100%
same,"viability, T/C",[2],101%
same,"viability, T/C",[3],88.2%
same,"viability, T/C",[4],60.9%
same,"viability, T/C",[5],41.8%
same,"viability, T/C",[6],6.28%
same,"viability, T/C",[7],87.6%
same,"viability, T/C",[8],97.7%
same,"viability, T/C",[9],80.6%
same,"viability, T/C",[10],53.2%
same,"viability, T/C",[11],31.8%
same,"viability, T/C",[12],4.37%
same,"viability, T/C",[13],88.2%
same,"viability, T/C",[14],94.8%
same,"viability, T/C",[15],92.1%
same,"viability, T/C",[16],47.4%
same,"viability, T/C",[17],28.8%
same,"viability, T/C",[18],4.21%
same,"viability, T/C",[19],83.7%
same,"viability, T/C",[20],92.4%
same,"viability, T/C",[21],79%
same,"viability, T/C",[22],44.6%
same,"viability, T/C",[23],24.2%
same,"viability, T/C",[24],1.77%
same,"viability, T/C",[25],70.9%
same,"viability, T/C",[26],72.8%
same,"viability, T/C",[27],55.9%
same,"viability, T/C",[28],40.5%
same,"viability, T/C",[29],25.1%
same,"viability, T/C",[30],0.88%
O=C(C=Cc1cccc(S(=O)(=O)Nc2ccccc2)c1)NO + CC(CO)NC(=O)c1cc(-c2ccc(Cl)cc2)nn(-c2cnn(C)c2)c1=O,pIC50,second compound 0.1 µM,5.80
same,pIC50,second compound 0.316 µM,5.66
same,pIC50,second compound 1 µM,5.70
same,pIC50,second compound 3.16 µM,5.80
same,pIC50,second compound 10 µM,5.74
same,"viability, T/C",[1],97.1%
same,"viability, T/C",[2],126%
same,"viability, T/C",[3],126%
same,"viability, T/C",[4],65.4%
same,"viability, T/C",[5],28.5%
same,"viability, T/C",[6],2.04%
same,"viability, T/C",[7],119%
same,"viability, T/C",[8],130%
same,"viability, T/C",[9],122%
same,"viability, T/C",[10],96.1%
same,"viability, T/C",[11],29.3%
same,"viability, T/C",[12],1.86%
same,"viability, T/C",[13],123%
same,"viability, T/C",[14],127%
same,"viability, T/C",[15],137%
same,"viability, T/C",[16],81%
same,"viability, T/C",[17],30.5%
same,"viability, T/C",[18],1.91%
same,"viability, T/C",[19],107%
same,"viability, T/C",[20],103%
same,"viability, T/C",[21],136%
same,"viability, T/C",[22],73.3%
same,"viability, T/C",[23],20.5%
same,"viability, T/C",[24],1%
same,"viability, T/C",[25],107%
same,"viability, T/C",[26],117%
same,"viability, T/C",[27],98.9%
same,"viability, T/C",[28],73%
same,"viability, T/C",[29],28.4%
same,"viability, T/C",[30],0.81%
